Data from PubChem BioAssay AID1963852 (Molecular Pharmacology Branch, DTP, NCI, 2024).
pIC50: −log10 of the molar value.

Tested on: 282377-053-R-J1-PDC complex spheroid viability
Test: Anticancer human tumor 282377-053-R-J1-PDC patient-derived colon adenocarcinoma cell line growth inhibition [POLQ]
Conditions: for pIC50: curve of first compound; for viability, T/C: stronger effect = lower value
Method in brief: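 Patient-derived tumour cells were co-cultured with HUVEC and mesenchymal stem cells as multicellular spheroids at 37 °C. They were treated with POLQ inhibitors (novobiocin, ART-558, RP6685) alone or combined with other agents. Top concentrations were at or near clinical Cmax (otherwise 10 microM; SN-38 at 1 microM), decreasing in half-log steps.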

[1] = second compound 0.0316 µM, first compound 0.0316 µM
[2] = second compound 0.0316 µM, first compound 0.1 µM
[3] = second compound 0.0316 µM, first compound 0.316 µM
[4] = second compound 0.0316 µM, first compound 1 µM
[5] = second compound 0.0316 µM, first compound 3.16 µM
[6] = second compound 0.0316 µM, first compound 10 µM
[7] = second compound 0.1 µM, first compound 0.0316 µM
[8] = second compound 0.1 µM, first compound 0.1 µM
[9] = second compound 0.1 µM, first compound 0.316 µM
[10] = second compound 0.1 µM, first compound 1 µM
[11] = second compound 0.1 µM, first compound 3.16 µM
[12] = second compound 0.1 µM, first compound 10 µM
[13] = second compound 0.316 µM, first compound 0.0316 µM
[14] = second compound 0.316 µM, first compound 0.1 µM
[15] = second compound 0.316 µM, first compound 0.316 µM
[16] = second compound 0.316 µM, first compound 1 µM
[17] = second compound 0.316 µM, first compound 3.16 µM
[18] = second compound 0.316 µM, first compound 10 µM
[19] = second compound 1 µM, first compound 0.0316 µM
[20] = second compound 1 µM, first compound 0.1 µM
[21] = second compound 1 µM, first compound 0.316 µM
[22] = second compound 1 µM, first compound 1 µM
[23] = second compound 1 µM, first compound 3.16 µM
[24] = second compound 1 µM, first compound 10 µM
[25] = second compound 3.16 µM, first compound 0.0316 µM
[26] = second compound 3.16 µM, first compound 0.1 µM
[27] = second compound 3.16 µM, first compound 0.316 µM
[28] = second compound 3.16 µM, first compound 1 µM
[29] = second compound 3.16 µM, first compound 3.16 µM
[30] = second compound 3.16 µM, first compound 10 µM
[31] = second compound 10 µM, first compound 0.0316 µM
[32] = second compound 10 µM, first compound 0.1 µM
[33] = second compound 10 µM, first compound 0.316 µM
[34] = second compound 10 µM, first compound 1 µM
[35] = second compound 10 µM, first compound 3.16 µM
[36] = second compound 10 µM, first compound 10 µM
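Further: spheroids exposed to compounds for seven days.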
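Wherever viability, T/C is given: 100% = DMSO vehicle control viability.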

COc1cccc2c1C(=O)c1c(O)c3c(c(O)c1C2=O)CC(O)(C(=O)CO)CC3OC1CC(N)C(O)C(C)O1 (stereo unspecified) + Cc1cccc(N(C)C(=O)C2C(O)CCN2c2nc(C)cc(C(F)(F)F)c2C#N)c1
pIC50 (second compound 0.0316 µM): 6.32 | pIC50 (second compound 0.1 µM): 6.25 | pIC50 (second compound 0.316 µM): 6.34 | pIC50 (second compound 1 µM): 6.43 | pIC50 (second compound 3.16 µM): 6.31 | pIC50 (second compound 10 µM): 6.46 | viability, T/C [1]: 130% | viability, T/C [2]: 105% | viability, T/C [3]: 63.7% | viability, T/C [4]: 27.6% | viability, T/C [5]: 1.27% | viability, T/C [6]: 3.44% | viability, T/C [7]: 108% | viability, T/C [8]: 98.5% | viability, T/C [9]: 79.6% | viability, T/C [10]: 20.7% | viability, T/C [11]: 1.4% | viability, T/C [12]: 2.79% | viability, T/C [13]: 104% | viability, T/C [14]: 100% | viability, T/C [15]: 66.1% | viability, T/C [16]: 16.1% | viability, T/C [17]: 0.98% | viability, T/C [18]: 3.12% | viability, T/C [19]: 113% | viability, T/C [20]: 101% | viability, T/C [21]: 47% | viability, T/C [22]: 29.9% | viability, T/C [23]: 2.19% | viability, T/C [24]: 2.83% | viability, T/C [25]: 115% | viability, T/C [26]: 91.7% | viability, T/C [27]: 73.3% | viability, T/C [28]: 15.2% | viability, T/C [29]: 1% | viability, T/C [30]: 2.98% | viability, T/C [31]: 95% | viability, T/C [32]: 89.8% | viability, T/C [33]: 54% | viability, T/C [34]: 9.01% | viability, T/C [35]: 0.71% | viability, T/C [36]: 2.73%

COc1ccc([C@@H](O)c2cc(-c3ncnc4cc(N5CCOCC5)ccc34)c(F)cc2Cl)nn1 + Cc1cccc(N(C)C(=O)C2C(O)CCN2c2nc(C)cc(C(F)(F)F)c2C#N)c1
pIC50 (second compound 0.0316 µM): < 5.00 | pIC50 (second compound 0.1 µM): < 5.00 | pIC50 (second compound 0.316 µM): < 5.00 | pIC50 (second compound 1 µM): < 5.00 | pIC50 (second compound 3.16 µM): < 5.00 | pIC50 (second compound 10 µM): < 5.00 | viability, T/C [1]: 104% | viability, T/C [2]: 115% | viability, T/C [3]: 108% | viability, T/C [4]: 103% | viability, T/C [5]: 78.3% | viability, T/C [6]: 62.4% | viability, T/C [7]: 106% | viability, T/C [8]: 106% | viability, T/C [9]: 89.1% | viability, T/C [10]: 110% | viability, T/C [11]: 72.2% | viability, T/C [12]: 75.1% | viability, T/C [13]: 110% | viability, T/C [14]: 90% | viability, T/C [15]: 97.6% | viability, T/C [16]: 93.1% | viability, T/C [17]: 102% | viability, T/C [18]: 62.2% | viability, T/C [19]: 111% | viability, T/C [20]: 80.1% | viability, T/C [21]: 97.7% | viability, T/C [22]: 83.2% | viability, T/C [23]: 103% | viability, T/C [24]: 53.1% | viability, T/C [25]: 122% | viability, T/C [26]: 98.9% | viability, T/C [27]: 108% | viability, T/C [28]: 87.8% | viability, T/C [29]: 101% | viability, T/C [30]: 68.5% | viability, T/C [31]: 87.9% | viability, T/C [32]: 87.6% | viability, T/C [33]: 109% | viability, T/C [34]: 76.6% | viability, T/C [35]: 64.3% | viability, T/C [36]: 54.3%

C#Cc1c(F)ccc2cc(O)cc(-c3ncc4c(N5CC6CCC(C5)N6)nc(OCC56CCCN5CC(F)C6)nc4c3F)c12 (stereo unspecified) + Cc1cccc(N(C)C(=O)C2C(O)CCN2c2nc(C)cc(C(F)(F)F)c2C#N)c1
pIC50 (second compound 0.0316 µM): < 5.00 | pIC50 (second compound 0.1 µM): < 5.00 | pIC50 (second compound 0.316 µM): < 5.00 | pIC50 (second compound 1 µM): < 5.00 | pIC50 (second compound 3.16 µM): < 5.00 | pIC50 (second compound 10 µM): < 5.00 | viability, T/C [1]: 105% | viability, T/C [2]: 84% | viability, T/C [3]: 77.4% | viability, T/C [4]: 89.2% | viability, T/C [5]: 68.6% | viability, T/C [6]: 86.9% | viability, T/C [7]: 84.1% | viability, T/C [8]: 82.4% | viability, T/C [9]: 112% | viability, T/C [10]: 84.8% | viability, T/C [11]: 106% | viability, T/C [12]: 81% | viability, T/C [13]: 91.9% | viability, T/C [14]: 79.2% | viability, T/C [15]: 105% | viability, T/C [16]: 93.6% | viability, T/C [17]: 85.2% | viability, T/C [18]: 66.2% | viability, T/C [19]: 104% | viability, T/C [20]: 80.4% | viability, T/C [21]: 86% | viability, T/C [22]: 81.3% | viability, T/C [23]: 86.9% | viability, T/C [24]: 70.4% | viability, T/C [25]: 91.9% | viability, T/C [26]: 97.6% | viability, T/C [27]: 73.3% | viability, T/C [28]: 75% | viability, T/C [29]: 77.9% | viability, T/C [30]: 74.3% | viability, T/C [31]: 81.7% | viability, T/C [32]: 82.4% | viability, T/C [33]: 82.3% | viability, T/C [34]: 68.5% | viability, T/C [35]: 70.6% | viability, T/C [36]: 81%
